Experimental data from US9290541B2, “TCL1 peptides for immunotherapy” (Board of Regents, The University of Texas System, priority 2011, dated 2016).

How the values were obtained:
[1] = tested on: autologous FL tumor cells; test: Mechanism of cytotoxicity of TCL1-specific CTLs against autologous follicular lymphoma cells; assay type: cell-based, human; settings: effector:target 20:1; 4 hour chromium-51 release; antibodies 10 μg/ml
Description: FIG. 10: Mechanism of cytotoxicity of TCL1-specific CTLs against autologous follicular lymphoma cells. TCL1-specific T cells were generated from PBMC obtained from a FL patient and cultured with autologous FL tumor cells preincubated with or without 10 μg/ml of MHC class I, class II, and isotype control antibodies at a ratio of 20:1 (Effector:Target). A standard 4 hour chromium-51 release assay was performed. MHC class I but not MHC class II or isotype control antibodies inhibited the cytolysis autologous lymphoma cells.

[2] = tested on: TCL165-79 peptide-specific T cells; test: IFN-γ ELISA of peptide-specific T cells with peptide-pulsed T2 cells or B lymphoblastoid cell lines; assay type: cell-based, human; settings: normal donor-derived T cells; 18 hours
Description: FIGS. 3A-E: TCL1-specific cytotoxic T cells can be generated from normal donors. (FIG. 3A) PBMCs from HLA-A2^+ normal donors were stimulated with overlapping 15-mer peptides spanning the entire length of the TCL1 protein (see Table 2). T cells from each condition were washed and incubated with autologous CD3-depleted PBMC as antigen-presenting cells (APC) in the presence or absence of the corresponding peptide. After 18 hours, the production of IFN-γ was determined in the supernatants by ELISA. Asterisk indicates significant IFN-γ production compared with control (P<0.05). Representative data from one of three normal donors tested is shown. (FIG. 3B) T cell lines generated from HLA-A2^+ normal donors using TCL165-79 peptide were incubated with APC in the presence or absence of the TCL165-79 peptide or control HIV Gag77-85 peptide, and intracellular cytokine assay was performed. The percentage of CD4^+ and CD8^+ T cells producing IFN-γ are shown. (FIG. 3C) TCL165-79 peptide-specific T cells were incubated with T2 cells or EBV-transformed B lymphoblastoid cell lines (IHW1003, IHW1019, IHW1089, and IHW1135) mismatched at their MHC class I locus in the presence of the TCL165-79 peptide or control HIV Gag77-85 peptide. IFN-γ production was determined as in (FIG. 3A). The HLA-A alleles for each of the cell lines are shown. (FIG. 3D, FIG. 3E) A 4-hour ^51Cr-release cytotoxicity assay was performed. TCL165-79 peptide-specific T cells were incubated with T2 cells alone or T2 cells pulsed with TCL165-79 peptide or control HIV Gag77-85 peptide, at various effector:target ratios. For MHC blocking assay, an effector:target ratio of 20:1 was used in the presence or absence of isotype control antibody or blocking antibodies against MHC class I, MHC class II, HLA-A2, or HLA-B and C. […]
FIGS. 4A-D: TCL171-78 is the minimal HLA-A*0201-binding peptide. […] After 18 hours, the production of IFN-γ was determined in the supernatants by ELISA. (FIG. 4B) T2 cells were incubated with TCL165-79-derived truncated peptides (SEQ ID NOS:1-2; SEQ ID NOS:12-17; SEQ ID NOS:3-11; and SEQ ID NO:18), and the HLA-A2 binding affinity of each peptide was determined by flow cytometry. The T2 binding index was calculated as described in Materials and Methods. […] (FIG. 4D) TCL165-79 peptide-specific CD8^+ T cells or irrelevant T-cell line were stained with TCL171-78 or HIV Gag77-85 tetramers and analyzed by flow cytometry. […]
(§1) FIGS. 6A-E: TCL171-78 peptide-specific T cells can be generated from lymphoma patients. (FIG. 6A) PBMC and tumor-infiltrating lymphocytes (TILs) derived from HLA-A2^+ patients with chronic lymphocytic leukemia (CLL) or follicular lymphoma (FL) were stimulated in vitro with TCL165-79 After five stimulations, IFN-γ production in response to TCL165-79 peptide was determined as in FIG. 3A. […]

[3] = tested on: T2 cells; test: 4-hour 51Cr-release cytotoxicity assay with peptide-pulsed T2 cells; assay type: cell-based, human; settings: 4-hour 51Cr release
Description: FIGS. 3A-E: TCL1-specific cytotoxic T cells can be generated from normal donors. (FIG. 3A) PBMCs from HLA-A2^+ normal donors were stimulated with overlapping 15-mer peptides spanning the entire length of the TCL1 protein (see Table 2). T cells from each condition were washed and incubated with autologous CD3-depleted PBMC as antigen-presenting cells (APC) in the presence or absence of the corresponding peptide. After 18 hours, the production of IFN-γ was determined in the supernatants by ELISA. Asterisk indicates significant IFN-γ production compared with control (P<0.05). Representative data from one of three normal donors tested is shown. (FIG. 3B) T cell lines generated from HLA-A2^+ normal donors using TCL165-79 peptide were incubated with APC in the presence or absence of the TCL165-79 peptide or control HIV Gag77-85 peptide, and intracellular cytokine assay was performed. The percentage of CD4^+ and CD8^+ T cells producing IFN-γ are shown. (FIG. 3C) TCL165-79 peptide-specific T cells were incubated with T2 cells or EBV-transformed B lymphoblastoid cell lines (IHW1003, IHW1019, IHW1089, and IHW1135) mismatched at their MHC class I locus in the presence of the TCL165-79 peptide or control HIV Gag77-85 peptide. IFN-γ production was determined as in (FIG. 3A). The HLA-A alleles for each of the cell lines are shown. (FIG. 3D, FIG. 3E) A 4-hour ^51Cr-release cytotoxicity assay was performed. TCL165-79 peptide-specific T cells were incubated with T2 cells alone or T2 cells pulsed with TCL165-79 peptide or control HIV Gag77-85 peptide, at various effector:target ratios. For MHC blocking assay, an effector:target ratio of 20:1 was used in the presence or absence of isotype control antibody or blocking antibodies against MHC class I, MHC class II, HLA-A2, or HLA-B and C. All cytotoxicity assays were performed in triplicate wells and mean and standard deviation are shown.
(§2) FIGS. 4A-D: TCL171-78 is the minimal HLA-A*0201-binding peptide. (FIG. 4A) TCL165-79 peptide-specific T cells derived from HLA-A2^+ normal donors were incubated in the presence or absence of T2 cells and TCL165-79 derived truncated peptides (SEQ ID NOS:1-2; SEQ ID NOS:12-17; SEQ ID NOS:3-11; and SEQ ID NO:18) Flu matrix peptide (FMP58-66) and Gag77-85 peptide were used as controls. After 18 hours, the production of IFN-γ was determined in the supernatants by ELISA. (FIG. 4B) T2 cells were incubated with TCL165-79-derived truncated peptides (SEQ ID NOS:1-2; SEQ ID NOS:12-17; SEQ ID NOS:3-11; and SEQ ID NO:18), and the HLA-A2 binding affinity of each peptide was determined by flow cytometry. The T2 binding index was calculated as described in Materials and Methods. […] (FIG. 4D) TCL165-79 peptide-specific CD8^+ T cells or irrelevant T-cell line were stained with TCL171-78 or HIV Gag77-85 tetramers and analyzed by flow cytometry. […]
as §1

[4] = target: T1, HLA-A2 (Homo sapiens, UniProt P04439, D140Y/D185E/D98H/E176V/E277Q/G131W/G231S/I119V/I121R/I166T/I218V/L300P/L318F/N151K/N90K/P208A/P217A/Q86G/Q94H/R138H/R169H/T345S); test: HLA-A2-binding assay (T2 binding index); settings: T2 cells, 20 μg/ml peptide, 24 hours
T1 construct: endogenous in cells; host or cells: T2 hybridoma cells (TAP-deficient, HLA-A2+)
Description: as §2
TAP-deficient T2 cells were incubated with 20 μg/ml of peptides and 3 μg/ml of β2-microglobulin (Sigma-Aldrich, Cat # M4890) for 24 hours at 37° C. and 5% CO2 in air. The cells were then stained with anti-HLA-A2 PE antibody (BD Biosciences, Cat #560168), and the level of HLA-A2 expression was determined by flow cytometry. […]

[5] = tested on: CD8+ T cells; test: Tetramer staining by flow cytometry; assay type: cell-based, human; settings: for percentage of tetramer positive CD8+ T cells, median / percentage of tetramer positive CD8+ T cells, range: two in vitro stimulations with TCL165-79
Description: FIGS. 4A-D: TCL171-78 is the minimal HLA-A*0201-binding peptide. (FIG. 4A) TCL165-79 peptide-specific T cells derived from HLA-A2^+ normal donors were incubated in the presence or absence of T2 cells and TCL165-79 derived truncated peptides (SEQ ID NOS:1-2; SEQ ID NOS:12-17; SEQ ID NOS:3-11; and SEQ ID NO:18) Flu matrix peptide (FMP58-66) and Gag77-85 peptide were used as controls. After 18 hours, the production of IFN-γ was determined in the supernatants by ELISA. (FIG. 4B) T2 cells were incubated with TCL165-79-derived truncated peptides (SEQ ID NOS:1-2; SEQ ID NOS:12-17; SEQ ID NOS:3-11; and SEQ ID NO:18), and the HLA-A2 binding affinity of each peptide was determined by flow cytometry. The T2 binding index was calculated as described in Materials and Methods. (FIG. 4C) TCL165-79 (SEQ ID NO:1) peptide-specific T cells were incubated with T2 cells pulsed with TCL165-79-derived truncated peptides (SEQ ID NO:1; SEQ ID NO:8; SEQ ID NO:10; SEQ ID NO:11; SEQ ID NO:18) or control HIV Gag77-85 peptide and a 4-hour ^51Cr-release cytotoxicity assay was performed. The percent specific lysis is shown. (FIG. 4D) TCL165-79 peptide-specific CD8^+ T cells or irrelevant T-cell line were stained with TCL171-78 or HIV Gag77-85 tetramers and analyzed by flow cytometry. The percentage of tetramer positive T cells is shown. Data in panels A-D are representative of three independent experiments each.
FIGS. 6A-E: TCL171-78 peptide-specific T cells can be generated from lymphoma patients. (FIG. 6A) PBMC and tumor-infiltrating lymphocytes (TILs) derived from HLA-A2^+ patients with chronic lymphocytic leukemia (CLL) or follicular lymphoma (FL) were stimulated in vitro with TCL165-79 After five stimulations, IFN-γ production in response to TCL165-79 peptide was determined as in FIG. 3A. (FIG. 6B, FIG. 6E) The cytotoxic function of TCL165-79 peptide-specific T cells generated above was tested against T2 cells pulsed with TCL165-79 peptide or HIV Gag77-85 peptide (FIG. 6B) or primary autologous or allogeneic HLA-A2^+ or HLA-A2^− mantle cell lymphoma (MCL Tu) or FL tumor cells (FL Tu) or tumor-free PBMC from MCL3 and FL5 patients (MCL3-PB and FL5-PB) or HLA-A2^+ MCF-7 cell line (FIG. 6E). (FIG. 6C) The percentage of tetramer positive CD8^+ T cells in each of the TCL1-specific T-cell lines generated from lymphoma patients is shown. (FIG. 6D) The expression of TCL1 in each of the primary lymphoma samples as determined by flow cytometry is shown. All cytotoxicity assays were performed in triplicate wells and mean and standard deviation are shown. CLL1-PB-T: TCL1-specific CTL generated from peripheral blood T cells of CLL patient 1; FL5-PB-T: TCL1-specific CTL generated from peripheral blood T cells of FL patient 5; FL5-TILs-T: TCL1-specific CTL generated from tumor infiltrating T cells of FL patient 5.
FIGS. 7A-B: TCL171-78 peptide-specific T cells are increased in lymphoma patients. PBMCs from HLA-A2^+ normal donors (ND, n=8) or lymphoma patients [chronic lymphocytic leukemia (CLL, n=2), mantle cell lymphoma (MCL, n=5); follicular lymphoma (FL, n=4); diffuse large B-cell lymphoma (n=2); splenic marginal zone B-cell lymphoma (SMZL, n=2)] were stimulated in vitro twice with TCL165-79 peptide and stained with TCL171-78 tetramer or HIV Gag77-85 tetramer. Representative data of the tetramer staining (FIG. 7A) and results from all samples analyzed (FIG. 7B) are shown. P value on the top of graph represents comparison between normal donors and all lymphoma patient samples. P values to the right represent comparison between normal donors and patients from each lymphoma subtype. All P values were calculated by two-tailed Student's t test.
Flow cytometry. For intracellular staining, tumor or normal B cells were first surface stained with CD3 and CD20 and then fixed and permeabilized using BD Biosciences Cytofix/Cytoperm™ Plus Fixation/Permeabilization kit as per manufacturer's instructions. […]

[6] = PBMC of HLA-A2+ lymphoma patients (N=15)

C/C=C/[C@H]1O[C@@](O)([C@@H](C)[C@H](O)[C@H](C)[C@H]2OC(=O)/C(OC)=C/C(C)=C/[C@@H](C)[C@@H](O)[C@@H](CC)[C@@H](O)[C@H](C)C/C(C)=C/C=C/[C@@H]2OC)C[C@@H](O[C@H]2C[C@@H](O)[C@H](OC(N)=O)[C@@H](C)O2)[C@@H]1C [Concanamycin A]
inhibition of cytolysis of autologous lymphoma cells by TCL1-specific CTLs [1]: significantly inhibited

LLPIMWQL [TCL171-78]
IFN-γ production by TCL165-79 peptide-specific T cells with T2 cells pulsed with truncated peptides [2]: induced significant IFN-γ production | lysis of T2 cells pulsed with truncated peptides by TCL165-79 peptide-specific T cells [3]: specifically lysed | binding to HLA-A2 [4]: bound to HLA-A2 | percentage of tetramer positive CD8+ T cells, median [5, 6]: 2.8% | percentage of tetramer positive CD8+ T cells, range [5, 6]: 0.88-6% | tetramer positive CD8+ T cells ([5]; T-cell lines from lymphoma patients, TCL171-78 tetramer): 10.8-23% | percentage of tetramer positive CD8+ T cells, median ([5]; normal donor PBMC (N=8)): 1.35% | percentage of tetramer positive CD8+ T cells, range ([5]; normal donor PBMC (N=8)): 0.38-2.2% | tetramer positive TCL165-79 peptide-specific CD8+ T cells ([5]; normal donor-derived T cell line, TCL171-78 tetramer): 8.2%

LLPIMWQLY [TCL171-79]
lysis of T2 cells pulsed with truncated peptides by TCL165-79 peptide-specific T cells [3]: specifically lysed

SLLPIMWQL [TCL170-79]
lysis of T2 cells pulsed with truncated peptides by TCL165-79 peptide-specific T cells [3]: specifically lysed
